Experimental data from ChEMBL document CHEMBL1130361, “Homology modeling of the ampa receptor: A quantitative predictive tool for the design of novel antagonists” (Bioorg Med Chem Lett, 1997).

biological target: Glutamate receptor ionotropic AMPA (Homo sapiens, UniProt P42261+P42262+P42263+P48058)
Description: Binding affinity against AMPA receptor using [3H]- AMPA radioligand

IC50	SMILES
166 nM	CCN1CCc2c([N+](=O)[O-])cc3[nH]c(=O)c(=O)[nH]c3c2C1
153 nM	CC(C)N1CCc2c([N+](=O)[O-])cc3[nH]c(=O)c(=O)[nH]c3c2C1
44000 nM	COC(=O)c1cc2nc(O)c(O)nc2c2c1CN(C)CC2
630 nM	C[C@@]12CC[C@H](CS(=O)(=O)c3nc[nH]n3)C[C@]1(C)CC(C(=O)O)NC2 (some centres not stated)

The next lines start with the compound.

SMILES	IC50
O=[N+]([O-])c1ccc2nc(O)c(O)nc2c1	2000 nM
CN1CCc2c([N+](=O)[O-])cc3[nH]c(=O)c(=O)[nH]c3c2C1	80 nM
C[C@@]12CC[C@H](CCc3nnn[nH]3)C[C@]1(C)CC(C(=O)O)NC2 (some centres not stated)	1350 nM
CN1CCc2c(-c3ccc([N+](=O)[O-])cc3)cc3c(c2C1)NC(=O)/C3=N\O	150 nM
CN1Cc2c(S(=O)(=O)N(C)C)cc3c(N=O)c(O)[nH]c3c2C1	700 nM
C[C@@]12CC[C@H](CSc3nn[nH]n3)C[C@]1(C)CC(C(=O)O)NC2 (some centres not stated)	580 nM
Oc1nc2ccc3c(c2nc1O)CCCN3	24000 nM
O=C1Nc2c(ccc3c2CCCC3)/C1=N/O	7200 nM
